# Experimental data as given in patent US11020395B2, “Cycloalkyl substituted triazole compounds as agonists of the APJ receptor” (AMGEN INC., priority 2016, dated 2021).
# pEC50: −log10 of the molar value.
# Biological target: human APJ receptor (Homo sapiens (Human), UniProt P35414)
# Test: [35S]GTPγS binding assay on membranes from CHO cells stably expressing human APJ receptor
# Assay type: biochemical
# Conditions: [35S]GTPγS SPA, read-out: Activity hAPJ SPA EC50 IP
# Procedure, shortened: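 Membranes from CHO cells stably expressing FLAG-tagged human APJ were incubated with [35S]GTPγS in buffer with optimized GDP, MgCl2 and NaCl, 90 min at RT. EC50 values derived by non-linear regression, averaged over several independent experiments.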
# Sequence of human APJ receptor (P35414 whole entry): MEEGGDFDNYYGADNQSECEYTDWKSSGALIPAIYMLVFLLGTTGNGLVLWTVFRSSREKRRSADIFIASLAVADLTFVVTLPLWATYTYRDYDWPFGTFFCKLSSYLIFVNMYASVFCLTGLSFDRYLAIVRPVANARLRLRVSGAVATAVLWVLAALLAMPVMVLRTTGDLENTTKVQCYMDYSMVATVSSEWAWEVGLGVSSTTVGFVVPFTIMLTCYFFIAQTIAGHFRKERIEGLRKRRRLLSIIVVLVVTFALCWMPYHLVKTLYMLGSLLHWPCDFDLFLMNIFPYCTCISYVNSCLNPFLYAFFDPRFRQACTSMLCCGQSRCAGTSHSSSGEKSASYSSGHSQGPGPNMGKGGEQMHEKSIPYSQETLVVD
row,Compound,pEC50
1,"COc1ncnc(OC)c1-n1c(NS(=O)(=O)[C@@H](C)[C@H](OC)c2ncc(Cl)cn2)nnc1[C@H]1C[C@@H](Cl)C1 (single isomer, unassigned) [Example 165.0, (1R,2S)-1-(5-chloropyrimidin-2-yl)-N-(4-(4,6-dimethoxypyrimidin-5-yl)-5-((1s,3R)-3-chlorocyclobutyl)-4H-1,2,4-triazol-3-yl)-1-methoxypropane-2-sulfonamide or (1R,2S)-1-(5-chloropyrimidin-2-yl)-N-(4-(4,6-dimethoxypyrimidin-5-yl)-5-((1r,3S)-3-chlorocyclobutyl)-4H-1,2,4-triazol-3-yl)-1-methoxypropane-2-sulfonamide]",8.01
2,"COc1cccc(OC)c1-n1c(NS(=O)(=O)[C@@H](C)[C@H](C)c2ncc(C)cn2)nnc1C1CCCC1 [Example 17.0, (2S,3R)-N-(5-cyclopentyl-4-(2,6-dimethoxyphenyl)-4H-1,2,4-triazol-3-yl)-3-(5-methylpyrimidin-2-yl)butane-2-sulfonamide]",8.96
3,"COc1ncnc(OC)c1-n1c(NS(=O)(=O)[C@@H](C)[C@H](OC)c2ncc(Cl)cn2)nnc1[C@H]1C[C@]2(CC2(F)F)C1 (single isomer, unassigned) [Example 204.0, (1R,2S)-1-(5-chloropyrimidin-2-yl)-N-(5-((3R,5s)-1,1-difluorospiro[2.3]hexan-5-yl)-4-(4,6-dimethoxypyrimidin-5-yl)-4H-1,2,4-triazol-3-yl)-1-methoxypropane-2-sulfonamide or (1R,2S)-1-(5-chloropyrimidin-2-yl)-N-(5-((3S,5r)-1,1-difluorospiro[2.3]hexan-5-yl)-4-(4,6-dimethoxypyrimidin-5-yl)-4H-1,2,4-triazol-3-yl)-1-methoxypropane-2-sulfonamide]",7.47
4,"CO[C@H](c1ncc(Cl)cn1)[C@H](C)S(=O)(=O)Nc1nnc(C2CCC2)n1-c1c(F)cccc1F [Example 94.0, (1R,2S)-1-(5-chloropyrimidin-2-yl)-N-(5-cyclobutyl-4-(2,6-difluorophenyl)-4H-1,24-triazol-3-yl)-1-methoxypropane-2-sulfonamide]",9.14
5,"(1R,2S)-1-(5-chloropyrimidin-2-yl)-N-(5-((R)-2,2-dimethylcyclopropyl)-4-(tetrahydro-2H-pyran-4-yl)-4H-1,2,4-triazol-3-yl)-1-methoxypropane-2-sulfonamide or (1R,2S)-1-(5-chloropyrimidin-2-yl)-N-(5-((S)-2,2-dimethylcyclopropyl)-4-(tetrahydro-2H-pyran-4-yl)-4H-1,2,4-triazol-3-yl)-1-methoxypropane-2-sulfonamide [Example 21.0]",6.32
6,"COc1ncnc(OC)c1-n1c(NS(=O)(=O)[C@@H](C)[C@H](C)c2ncc(C)cn2)nnc1C1CCCCC1 [Example 5.0, (2S,3R)-N-(5-cyclohexyl-4-(4,6-dimethoxy-5-pyrimidinyl)-4H-1,2,4-triazol-3-yl)-3-(5-methyl-2-pyrimidinyl)-2-butanesulfonamide]",8.03
7,"COc1cccc(OC)c1-n1c(NS(=O)(=O)[C@@H](C)[C@@H](OC(C)C)c2ncc(C)cn2)nnc1[C@@H]1CCC(=O)C1 (single isomer, unassigned) [Example 229.0, (1S,2S)-N-(4-(2,6-dimethoxyphenyl)-5-((R)-3-oxocyclopentyl)-4H-1,2,4-triazol-3-yl)-1-isopropoxy-1-(5-methylpyrimidin-2-yl)propane-2-sulfonamide or (1S,2S)-N-(4-(2,6-dimethoxyphenyl)-5-((S)-3-oxocyclopentyl)-4H-1,2,4-triazol-3-yl)-1-isopropoxy-1-(5-methylpyrimidin-2-yl)propane-2-sulfonamide]",7.52
8,"COCC(COC)n1c(NS(=O)(=O)[C@@H](C)[C@H](OC)c2ncc(Cl)cn2)nnc1[C@H]1C[C@H](CO)C1 (single isomer, unassigned) [Example 130.0, (1R,2S)-1-(5-chloropyrimidin-2-yl)-N-(4-(1,3-dimethoxypropan-2-yl)-5-((1r,3S)-3-(hydroxymethyl)cyclobutyl)-4H-1,2,4-triazol-3-yl)-1-methoxypropane-2-sulfonamide or (1R,2S)-1-(5-chloropyrimidin-2-yl)-N-(4-(1,3-dimethoxypropan-2-yl)-5-((1s,3R)-3-(hydroxymethyl)cyclobutyl)-4H-1,2,4-triazol-3-yl)-1-methoxypropane-2-sulfonamide]",5.82
9,"COc1ncnc(OC)c1-n1c(NS(=O)(=O)[C@@H](C)[C@H](OC)c2ncc(Cl)cn2)nnc1[C@H]1C[C@@H](C)C1 [Example 186.0, (1R,2S)-1-(5-chloro-2-pyrimidinyl)-N-(4-(4,6-dimethoxy-5-pyrimidinyl)-5-(cis-3-methylcyclobutyl)-4H-1,2,4-triazol-3-yl)-1-methoxy-2-propanesulfonamide]",9.05
10,"COc1cccc(OC)c1-n1c(NS(=O)(=O)[C@@H](C)[C@@H](OC(C)C)c2ncc(C)cn2)nnc1[C@@H]1CCC[C@@H]1OC (single isomer, unassigned) [Example 233.0]",7.03

# Biological target: human APJ-AT1R double stable CHO cell line (Homo sapiens (Human), UniProt P35414)
# Test: IP1 accumulation (TR-FRET) assay with AngII in human APJ-AT1R double stable CHO cell line
# Assay type: cell-based
# Conditions: in the presence of AngII and APJ small molecule agonists
# Protocol: The function of the inositol phosphate accumulation (IP1) was measured by Time-resolved fluorescence resonance energy (TR-FRET) at 620 nm and 665 nm respectively.
# The plate was sealed and incubated for 1 hour.
# Sequence of human APJ-AT1R double stable CHO cell line (P35414 whole entry): as above
row,effect on APJ agonist-induced positive cooperativity,Compound
1,relieved this cooperativity,CCCCc1nc(Cl)c(CO)n1Cc1ccc(-c2ccccc2-c2nn[nH]n2)cc1 [losartan]

# Test system: heart failure rats
# Test: Cardiac function with APJ small molecule agonists in the presence of ACE inhibitor captopril in heart failure rats in vivo
# Parameters: species or system rat
# Conditions: captopril alone, acute settings
# Text: The interaction between […] (ACE2) and Apelin biology is complicated. To investigate the interaction between the Apelin-APJ and ACE signalling pathways, we examined the improvement in cardiac function with APJ small molecule agonists in the presence of ACE inhibitor captopril in heart failure rats in vivo. […] However, in the presence of an APJ agonist, there was a shift in potency to the left with marked improvement in contractility and ejection fraction without changes in heart rate. These findings provide a new reference for the understanding of the regulation of ACE2 for the renin angiotensin aldosterone system (RAAS), independent of AT1R signaling and offer new potential drug targets for the treatment of diseases such as hypertension and heart failure. This work clearly establishes that combination of an agonist of the APJ receptor with an ARB such as losartan and/or with an ACE inhibitor such as captopril which may play an important role in providing greater efficacy in treating heart failure patients, for example in improving contractility and ejection fraction without changing the heart rate.
row,Compound,contractility or ejection fraction
1,"C[C@H](CS)C(=O)N1CCC[C@H]1C(=O)O [Captopril, captopril]",does not show a marked improvement
